Results reported in patent US20040214832A1, “Piperazine derivative renin inhibitors” (priority 2003, published 2004).

Biological target: T1, human renin (Homo sapiens, UniProt P00797)
T1 sequence (P00797 67-406): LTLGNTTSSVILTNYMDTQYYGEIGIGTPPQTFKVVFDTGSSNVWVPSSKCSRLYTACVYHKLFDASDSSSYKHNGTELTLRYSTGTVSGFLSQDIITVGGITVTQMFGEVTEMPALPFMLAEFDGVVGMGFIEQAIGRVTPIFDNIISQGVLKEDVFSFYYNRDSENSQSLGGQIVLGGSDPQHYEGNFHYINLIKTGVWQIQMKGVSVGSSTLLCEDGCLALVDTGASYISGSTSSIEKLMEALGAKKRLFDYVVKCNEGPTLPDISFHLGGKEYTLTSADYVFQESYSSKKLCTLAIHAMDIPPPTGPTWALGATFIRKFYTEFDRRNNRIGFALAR
Assay: Determination of renin IC50 by tGFP FRET assay
Assay type: biochemical
Settings: Human recombinant renin, tandem GFP substrate 650 nM, 60 min incubation with compound, pH 7.4, 11-point curve
Outline: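 Human recombinant renin (final 50.4 μIU) preincubated 60 min with compound (5% DMSO final) in 50 mM HEPES, 1 mM EDTA, 1% PEG 8000, 1 mM DTT, 0.1% BSA, pH 7.4, then tandem-GFP substrate added at 650 nM final. FRET fluorescence read; IC50 from 11-point curves spanning 100 μM–1 pM.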

Going from `COc1ccc(COC[C@H]2CNCCN2c2ccc(COCCOCc3ccccc3OC)cc2)cc1` [Example 72, (2R)-1-{4-[2-(2-methoxybenzyloxy)-ethoxymethyl]-phenyl}-2-(4-methoxybenzyloxymethyl)-piperazine] to `COc1ccc(COC[C@H]2CNCCN2c2ccc(OCCCOCc3ccccc3)cc2)cc1` [Example 34, (2R)-1-[4-(3-benzyloxypropoxy)-phenyl]-2-(4-methoxybenzyloxymethyl)-piperazine], the IC50 falls from 30.5 µM to 10.9 µM (2.8-fold).

First: COc1ccccc1COCCCOc1ccc(N2C(=O)CNC[C@@H]2COCc2ccc(C)cc2)cc1 [Example 7, (6R)-1-{4-[3-(2-methoxybenzyloxy)-propoxy]-phenyl}-6-(4-methylbenzyloxymethyl)-piperazin-2-one]
Second: COc1ccccc1COCCCOc1ccc(N2C(=O)CNC[C@H]2COCc2ccc(F)cc2)cc1 [Example 46, (6S)-6-(4-fluorobenzyloxymethyl)-1-{4-[3-(2-methoxybenzyloxy)-propoxy]-phenyl}-piperazin-2-one]
The IC50 of the first is 17-fold lower: 0.337 µM for the first, 5.59 µM for the second.

First: COC(=O)CCn1ccc2cc(OC[C@H]3CNCC(=O)N3c3ccc(OCCCOCc4ccccc4OC)cc3)ccc21 [Example 119, 3-[5-([2R]-1-{4-[3-(2-Methoxybenzyloxy)-propoxy]-phenyl}-6-oxopiperazin-2-ylmethoxy)-indol-1-yl]-propionic acid methyl ester]
Second: COC(=O)Cn1ccc2cc(OC[C@@H]3CNCC(=O)N3c3ccc(OCCCOCc4ccccc4OC)cc3)ccc21 [Example 113, [5-([2S]-1-{4-[3-(2-Methoxybenzyloxy)-propoxy]-phenyl}-6-oxopiperazin-2-ylmethoxy)-indol-1-yl]-acetic acid methyl ester]
The IC50 of the first is 6.2-fold lower: 0.00162 µM for the first, 0.01 µM for the second. The first is the more potent here.

Going from `COc1ccccc1COCCCOc1ccc(N2C(=O)CNC[C@@H]2COc2ccc3c(c2)N(CCCO)CCC3)cc1` [Example 44, (6R)-6-[1-(3-hydroxypropyl)-1,2,3,4-tetrahydroquinolin-7-yloxymethyl]-1-{4-[3-(2-methoxybenzyloxy)-propoxy]-phenyl}-piperazin-2-one] to `COC(=O)CCN1CCCc2ccc(OC[C@H]3CNCC(=O)N3c3ccc(OCCCOCc4ccccc4OC)cc3)cc21` [Example 122, 3-[7-([2R]-1-{4-[3-(2-Methoxybenzyloxy)-propoxy]-phenyl}-6-oxopiperazin-2-ylmethoxy)-3,4-dihydro-2H-quinolin-1-yl]-propionic acid methyl ester], the IC50 falls from 0.037 µM to 0.00036 µM (100-fold).

Going from `COc1ccc(COC[C@H]2CNCCN2c2ccc(OCCCOCc3cccc(OC)c3)cc2)cc1` [Example 69, (2R)-2-(4-methoxybenzyloxymethyl)-1-{4-[3-(3-methoxybenzyloxy)-propoxy]-phenyl}-piperazine] to `COc1ccc(COC[C@H]2CNCCN2c2ccc(OCCCOCc3cccc(Cl)c3)cc2)cc1` [Example 64, (2R)-1-{4-[3-(3-chlorobenzyloxy)-propoxy]-phenyl}-2-(4-methoxybenzyloxymethyl)-piperazine], the IC50 falls from 15.6 µM to 5.04 µM (3.1-fold). The second is the more potent here.

`COc1ccccc1COCCCOc1ccc(N2C(=O)CNC[C@@H]2COCc2ccc(F)c(C(F)(F)F)c2)cc1` [Example 26, (6R)-6-(4-fluoro-3-trifluoromethylbenzyloxymethyl)-1-{4-[3-(2-methoxybenzyloxy)-propoxy]-phenyl}-piperazin-2-one] and `COc1ccccc1COCCCOc1ccc(N2C(=O)CNC[C@@H]2COCc2ccc(Cl)c(C(F)(F)F)c2)cc1` [Example 24, (6R)-6-(4-chloro-3-trifluoromethylbenzyloxymethyl)-1-{4-[3-(2-methoxybenzyloxy)-propoxy]-phenyl}-piperazin-2-one] are within 1.5-fold of each other in IC50: 0.132 µM for the first, 0.107 µM for the second.

`O=C(NCCOc1ccccc1)c1ccc(N2C(=O)CNC[C@@H]2COc2ccc3ccccc3c2)cc1` [Example 53, 4-[(2R)-2-(naphthalen-2-yloxymethyl)-6-oxopiperazin-1-yl]-N-(2-phenoxyethyl)-benzamide] and `c1ccc(COCCCOc2ccc(N3CCNC[C@@H]3COc3ccc4ccccc4c3)cc2)cc1` [Example 38, (2R)-1-[4-(3-benzyloxypropoxy)-phenyl]-2-(naphthalen-2-yloxymethyl)-piperazine] cannot be ordered by IC50: over 1 µM for the first, 1.42 µM for the second.

`COc1ccccc1COCCCOc1ccc(N2C(=O)CNC[C@@H]2CNC(=O)c2ccc(Cl)cc2)cc1` [Example 83, 4-chloro-N-([2R]-1-{4-[3-(2-methoxybenzyloxy)-propoxy]-phenyl}-6-oxopiperazin-2-ylmethyl)-benzamide] and `COc1ccccc1COCCCOc1ccc(N2C(=O)CNC[C@@H]2COC(=O)c2ccc(C)cc2)cc1` [Example 59, 4-methyl-benzoic acid (2R)-1-{4-[3-(2-methoxybenzyloxy)-propoxy]-phenyl}-6-oxopiperazin-2-yl methyl ester] cannot be ordered by IC50: over 1 µM for the first, over 1 µM for the second.

`COc1ccccc1COCCCOc1ccc(N2C(=O)CNC[C@@H]2COCc2ccc(F)cc2Cl)cc1` [Example 22, (6R)-6-(2-chloro-4-fluorobenzyloxymethyl)-1-{4-[3-(2-methoxybenzyloxy)-propoxy]-phenyl}-piperazin-2-one] and `COc1ccccc1COCCCOc1ccc(N2C(=O)CNC[C@@H]2COCc2ccc(F)cc2C(F)(F)F)cc1` [Example 19, (6R)-6-(4-fluoro-2-trifluoromethylbenzyloxymethyl)-1-{4-[3-(2-methoxybenzyloxy)-propoxy]-phenyl}-piperazin-2-one] cannot be ordered by IC50: over 1 µM for the first, over 1 µM for the second.

Compared with `COc1ccccc1COCCCOc1ccc(N2C(=O)CNC[C@@H]2COCc2ccc(F)c(F)c2)cc1` [Example 4, (6R)-6-(3,4-difluorobenzyloxymethyl)-1-{4-[3-(2-methoxybenzyloxy)-propoxy]-phenyl}-piperazin-2-one], `COc1cccc(COC[C@H]2CNCC(=O)N2c2ccc(OCCCOCc3ccccc3OC)cc2)c1` [Example 9, (6R)-6-(3-methoxybenzyloxymethyl)-1-{4-[3-(2-methoxybenzyloxy)-propoxy]-phenyl}-piperazin-2-one] is 2.5-fold higher in IC50: 0.246 µM for the first, 0.612 µM for the second.

`COc1ccccc1COCCCOc1ccc(N2C(=O)CNC[C@@H]2COc2ccc3c(ccn3CCNC(C)=O)c2)cc1` [Example 120, N-{2-[5-([2R]-1-{4-[3-(2-Methoxybenzyloxy)-propoxy]-phenyl}-6-oxopiperazin-2-ylmethoxy)-indol-1-yl]-ethyl}-acetamide] and `CCOC(=O)Cn1ccc2ccc(OC[C@H]3CNCC(=O)N3c3ccc(OCCCOCc4ccccc4OC)cc3)cc21` [Example 132, [6-([2R]-1-{4-[3-(2-Methoxybenzyloxy)-propoxy]-phenyl}-6-oxo-piperazin-2-ylmethoxy)-indol-1-yl]-acetic acid ethyl ester] are within 1.5-fold of each other in IC50: 0.00466 µM for the first, 0.006 µM for the second.

`COc1ccc(COC[C@H]2CNCC(=O)N2c2ccc(OCCCOCc3ccccc3OC)cc2)cc1` [Example 12, (6R)-6-(4-methoxybenzyloxymethyl)-1-{4-[3-(2-methoxybenzyloxy)-propoxy]-phenyl}-piperazin-2-one] and `COc1ccccc1COCCCOc1ccc(N2C(=O)CNC[C@@H]2COCc2c(Cl)cccc2Cl)cc1` [Example 17, (6R)-6-(2,6-dichlorobenzyloxymethyl)-1-{4-[3-(2-methoxybenzyloxy)-propoxy]-phenyl}-piperazin-2-one] cannot be ordered by IC50: 3.86 µM for the first, over 1 µM for the second.

First: COc1ccccc1COCCCOc1ccc(N2C(=O)CNC[C@@H]2COc2ccccn2)cc1 [Example 80, (6R)-1-{4-[3-(2-methoxybenzyloxy)-propoxy]-phenyl}-6-(pyridin-2-yloxymethyl)-piperazin-2-one]
Second: COc1ccccc1COCCCOc1ccc(N2C(=O)CNC[C@@H]2COc2ccc3cccnc3c2)cc1 [Example 41, (6R)-1-{4-[3-(2-methoxybenzyloxy)-propoxy]-phenyl}-6-(quinolin-7-yloxymethyl)-piperazin-2-one]
The IC50 of the first is 25-fold higher: 20.9 µM for the first, 0.822 µM for the second.

Going from `COc1ccccc1COCCCOc1ccc(N2C(=O)CNC[C@@H]2COc2ccc3ccncc3c2)cc1` [Example 51, (6R)-6-(isoquinolin-7-yloxymethyl)-1-{4-[3-(2-methoxybenzyloxy)-propoxy]-phenyl}-piperazin-2-one] to `COc1ccccc1COCCCOc1ccc(N2C(=O)CNC[C@@H]2COc2ccc3c(c2)NCCC3)cc1` [Example 42, (6R)-1-{4-[3-(2-methoxybenzyloxy)-propoxy]-phenyl}-6-(1,2,3,4-tetrahydroquinolin-7-yloxymethyl)-piperazin-2-one], the IC50 falls from 0.528 µM to 0.124 µM (4.3-fold). The second is the more potent here.

First: CCOC(=O)CN1C(=O)COc2ccc(SC[C@H]3CNCC(=O)N3c3ccc(OCCCOCc4ccccc4OC)cc3)cc21 [Example 129, [6-([2R]-1-{4-[3-(2-Methoxybenzyloxy)-propoxy]-phenyl}-6-oxo-piperazin-2-ylmethylsulfanyl)-3-oxo-2,3-dihydro-benzo[1,4]oxazin-4-yl]-acetic acid ethyl ester]
Second: COc1ccccc1COCCCOc1ccc(N2C(=O)CNC[C@@H]2COc2ccc(-c3ccccc3)cc2)cc1 [Example 92, (6R)-6-(biphenyl-4-yloxymethyl)-1-(4-[3-(2-methoxybenzyloxy)-propoxy]-phenyl)-piperazin-2-one]
The IC50 of the first is 15000-fold lower: 0.00017 µM for the first, 2.52 µM for the second.

Going from `COc1ccccc1COCCCOc1ccc(N2CCNC[C@@H]2COCc2ccc3ccccc3c2)cc1` [Example 90, (2R)-1-{4-[3-(2-methoxybenzyloxy)-propoxy]-phenyl}-2-(naphthalen-2-ylmethoxymethyl)-piperazine] to `COc1ccccc1OCCCOCc1ccc(N2CCNC[C@@H]2COc2ccc3ccccc3c2)cc1` [Example 97, (2R)-1-(4-[3-(2-methoxyphenoxy)-propoxymethyl]-phenyl)-2-(naphthalene-2-yloxymethyl)-piperazine], the IC50 rises from 1.7 µM to 26.3 µM (15-fold).
